Test results from ChEMBL document CHEMBL4800726, “Data for DCP probe MSC-4381” (2021).

Experiments:
[1] = molecular target: T1, Muscarinic acetylcholine receptor M2 (Homo sapiens) (UniProt P08172); details: Compound concentration 10.0 uM
T1 sequence (whole entry): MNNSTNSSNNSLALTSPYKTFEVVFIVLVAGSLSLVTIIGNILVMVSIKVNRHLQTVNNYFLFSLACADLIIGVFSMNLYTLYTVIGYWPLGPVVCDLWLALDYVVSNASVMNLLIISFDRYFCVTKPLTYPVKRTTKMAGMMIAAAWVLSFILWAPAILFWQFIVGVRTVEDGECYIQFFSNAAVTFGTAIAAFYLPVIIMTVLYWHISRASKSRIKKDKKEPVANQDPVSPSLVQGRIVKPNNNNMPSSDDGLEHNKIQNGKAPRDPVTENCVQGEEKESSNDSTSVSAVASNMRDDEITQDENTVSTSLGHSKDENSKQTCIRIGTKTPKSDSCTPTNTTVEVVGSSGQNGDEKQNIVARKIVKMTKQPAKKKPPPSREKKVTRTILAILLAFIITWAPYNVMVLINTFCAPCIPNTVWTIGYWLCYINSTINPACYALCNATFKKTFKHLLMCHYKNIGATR

[2] = species: Rattus norvegicus; details: Compound concentration 10.0 uM
[3] = molecular target: Sigma non-opioid intracellular receptor 1 (Homo sapiens) (UniProt Q99720); details: Compound concentration 10.0 uM
Sigma non-opioid intracellular receptor 1 (Homo sapiens), sequence (Q99720 whole entry): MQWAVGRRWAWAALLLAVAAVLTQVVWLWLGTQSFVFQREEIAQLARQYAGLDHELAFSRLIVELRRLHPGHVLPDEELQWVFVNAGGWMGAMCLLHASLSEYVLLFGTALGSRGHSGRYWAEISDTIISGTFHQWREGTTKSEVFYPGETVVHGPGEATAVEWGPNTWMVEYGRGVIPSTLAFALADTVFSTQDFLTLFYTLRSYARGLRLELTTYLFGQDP

[4] = molecular target: Sodium-dependent noradrenaline transporter (Homo sapiens) (UniProt P23975); details: Compound concentration 10.0 uM
[5] = molecular target: Beta-2 adrenergic receptor (Homo sapiens) (UniProt P07550); details: Compound concentration 10.0 uM
Beta-2 adrenergic receptor (Homo sapiens), sequence (P07550 whole entry, looked up): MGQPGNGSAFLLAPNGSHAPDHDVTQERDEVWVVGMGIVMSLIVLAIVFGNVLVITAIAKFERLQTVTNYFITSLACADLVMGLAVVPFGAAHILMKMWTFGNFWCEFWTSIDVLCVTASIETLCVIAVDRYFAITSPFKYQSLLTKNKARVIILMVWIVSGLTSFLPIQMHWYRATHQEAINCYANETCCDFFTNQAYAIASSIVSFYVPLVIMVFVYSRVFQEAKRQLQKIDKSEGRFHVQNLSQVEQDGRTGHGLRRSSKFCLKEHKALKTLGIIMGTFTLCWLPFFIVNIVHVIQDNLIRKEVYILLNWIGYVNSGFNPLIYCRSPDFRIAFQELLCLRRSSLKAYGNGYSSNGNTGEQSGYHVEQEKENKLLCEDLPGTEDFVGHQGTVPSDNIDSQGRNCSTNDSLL

[6] = molecular target: GABA-A receptor; anion channel (Rattus norvegicus) (UniProt O09028+P15431+P18506+P18508+P19969+P20236+P23574+P23576+P28471+P28473+P30191+P62813+P63079+P63138+Q91ZM7+Q9ES14); details: Compound concentration 10.0 uM
[7] = molecular target: 5-hydroxytryptamine receptor 2A (Homo sapiens) (UniProt P28223); details: Compound concentration 10.0 uM
5-hydroxytryptamine receptor 2A (Homo sapiens), sequence (P28223 whole entry): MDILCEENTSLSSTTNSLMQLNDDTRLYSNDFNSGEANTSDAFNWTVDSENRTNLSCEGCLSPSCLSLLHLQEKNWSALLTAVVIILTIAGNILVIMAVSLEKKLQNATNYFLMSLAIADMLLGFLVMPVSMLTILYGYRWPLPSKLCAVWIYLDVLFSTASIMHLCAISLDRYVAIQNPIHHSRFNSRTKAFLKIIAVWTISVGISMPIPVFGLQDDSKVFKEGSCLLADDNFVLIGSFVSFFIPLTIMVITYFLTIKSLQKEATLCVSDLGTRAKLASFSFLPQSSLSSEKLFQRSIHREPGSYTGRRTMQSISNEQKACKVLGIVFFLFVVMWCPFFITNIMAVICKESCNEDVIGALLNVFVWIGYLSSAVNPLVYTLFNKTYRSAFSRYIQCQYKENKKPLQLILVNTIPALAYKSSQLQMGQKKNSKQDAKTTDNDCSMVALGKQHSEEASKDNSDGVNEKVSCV

[8] = molecular target: Monocarboxylate transporter 2/3 (Homo sapiens, UniProt O60669+O95907); test: Lactate efflux inhibition assay (RT4); type: protein assay
[9] = molecular target: T2, Muscarinic acetylcholine receptor M1 (Homo sapiens) (UniProt P11229); details: Compound concentration 10.0 uM
T2 sequence (whole entry): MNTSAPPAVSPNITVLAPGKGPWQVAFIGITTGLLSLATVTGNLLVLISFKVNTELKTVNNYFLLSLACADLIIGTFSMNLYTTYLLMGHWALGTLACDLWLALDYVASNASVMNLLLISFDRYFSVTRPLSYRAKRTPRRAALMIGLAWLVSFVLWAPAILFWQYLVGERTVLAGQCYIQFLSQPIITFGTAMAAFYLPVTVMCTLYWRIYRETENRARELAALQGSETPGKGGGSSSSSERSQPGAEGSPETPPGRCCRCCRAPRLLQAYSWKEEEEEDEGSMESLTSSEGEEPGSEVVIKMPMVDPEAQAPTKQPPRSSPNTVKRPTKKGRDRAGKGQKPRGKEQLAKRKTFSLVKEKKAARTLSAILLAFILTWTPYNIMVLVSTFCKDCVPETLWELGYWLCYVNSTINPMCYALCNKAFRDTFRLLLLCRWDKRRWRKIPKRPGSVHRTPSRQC

[10] = molecular target: Alpha-2B adrenergic receptor (Homo sapiens) (UniProt P18089); details: Compound concentration 10.0 uM
Alpha-2B adrenergic receptor (Homo sapiens), sequence (P18089 whole entry): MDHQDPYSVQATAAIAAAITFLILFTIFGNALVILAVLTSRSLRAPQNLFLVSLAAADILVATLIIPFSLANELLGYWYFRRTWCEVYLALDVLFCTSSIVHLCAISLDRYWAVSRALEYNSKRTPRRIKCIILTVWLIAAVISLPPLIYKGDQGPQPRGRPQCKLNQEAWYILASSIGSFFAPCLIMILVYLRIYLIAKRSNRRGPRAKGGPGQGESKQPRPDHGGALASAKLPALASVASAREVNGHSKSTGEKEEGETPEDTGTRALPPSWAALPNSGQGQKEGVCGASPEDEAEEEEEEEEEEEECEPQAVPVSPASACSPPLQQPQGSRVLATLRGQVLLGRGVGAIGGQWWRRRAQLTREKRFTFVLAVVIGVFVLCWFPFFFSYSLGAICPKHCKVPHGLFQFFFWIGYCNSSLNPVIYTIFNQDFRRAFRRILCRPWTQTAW

[11] = molecular target: D(2) dopamine receptor (Homo sapiens) (UniProt P14416); details: Compound concentration 10.0 uM
D(2) dopamine receptor (Homo sapiens), sequence (P14416 whole entry): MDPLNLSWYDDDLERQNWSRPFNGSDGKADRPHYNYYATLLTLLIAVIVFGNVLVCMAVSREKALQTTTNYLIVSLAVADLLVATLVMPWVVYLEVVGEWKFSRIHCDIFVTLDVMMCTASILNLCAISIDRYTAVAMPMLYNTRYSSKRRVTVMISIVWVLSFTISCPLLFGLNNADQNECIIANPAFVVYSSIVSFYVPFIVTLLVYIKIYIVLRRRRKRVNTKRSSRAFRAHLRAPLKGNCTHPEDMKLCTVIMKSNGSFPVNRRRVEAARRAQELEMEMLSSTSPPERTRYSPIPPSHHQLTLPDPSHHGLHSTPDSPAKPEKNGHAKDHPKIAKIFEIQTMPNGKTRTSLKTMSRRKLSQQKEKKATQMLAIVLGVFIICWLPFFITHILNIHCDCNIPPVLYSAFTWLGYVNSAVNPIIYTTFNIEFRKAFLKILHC

[12] = molecular target: Alpha-2C adrenergic receptor (Homo sapiens) (UniProt P18825); details: Compound concentration 10.0 uM
[13] = molecular target: Alpha-1B adrenergic receptor (Homo sapiens) (UniProt P35368); details: Compound concentration 10.0 uM
Alpha-1B adrenergic receptor (Homo sapiens), sequence (P35368 whole entry): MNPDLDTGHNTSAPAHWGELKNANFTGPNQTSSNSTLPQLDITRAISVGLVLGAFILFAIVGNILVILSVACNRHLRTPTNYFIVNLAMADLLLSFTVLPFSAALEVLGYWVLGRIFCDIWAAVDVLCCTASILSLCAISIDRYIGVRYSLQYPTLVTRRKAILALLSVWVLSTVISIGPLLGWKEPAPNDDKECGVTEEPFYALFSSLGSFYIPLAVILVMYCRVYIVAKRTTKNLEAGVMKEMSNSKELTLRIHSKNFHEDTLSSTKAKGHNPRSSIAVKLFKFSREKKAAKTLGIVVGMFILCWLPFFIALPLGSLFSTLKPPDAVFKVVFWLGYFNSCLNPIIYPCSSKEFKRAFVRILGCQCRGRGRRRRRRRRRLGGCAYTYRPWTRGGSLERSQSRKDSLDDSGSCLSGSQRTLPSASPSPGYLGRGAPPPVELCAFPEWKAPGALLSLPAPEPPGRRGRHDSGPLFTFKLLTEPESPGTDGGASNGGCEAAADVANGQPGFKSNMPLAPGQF

[14] = molecular target: Alpha-2A adrenergic receptor (Homo sapiens) (UniProt P08913); details: Compound concentration 10.0 uM
Alpha-2A adrenergic receptor (Homo sapiens), sequence (P08913 whole entry): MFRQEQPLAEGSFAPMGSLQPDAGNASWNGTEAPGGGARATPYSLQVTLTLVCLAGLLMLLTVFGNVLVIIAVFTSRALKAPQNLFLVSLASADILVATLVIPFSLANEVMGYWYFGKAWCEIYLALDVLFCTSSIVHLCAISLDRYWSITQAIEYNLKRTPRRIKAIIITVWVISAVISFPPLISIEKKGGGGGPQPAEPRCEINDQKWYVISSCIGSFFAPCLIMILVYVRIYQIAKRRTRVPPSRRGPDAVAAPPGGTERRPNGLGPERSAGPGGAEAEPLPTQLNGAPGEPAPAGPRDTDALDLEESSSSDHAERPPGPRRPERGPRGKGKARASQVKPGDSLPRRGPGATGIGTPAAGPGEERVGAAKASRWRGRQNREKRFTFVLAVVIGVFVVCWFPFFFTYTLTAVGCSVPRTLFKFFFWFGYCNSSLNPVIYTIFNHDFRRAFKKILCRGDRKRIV

[15] = molecular target: 5-hydroxytryptamine receptor 7 (Homo sapiens) (UniProt P34969); details: Compound concentration 10.0 uM
[16] = molecular target: 5-hydroxytryptamine receptor 2C (Homo sapiens) (UniProt P28335); details: Compound concentration 10.0 uM
[17] = molecular target: 5-hydroxytryptamine receptor 6 (Homo sapiens, UniProt P50406); details: Compound concentration 10.0 uM
5-hydroxytryptamine receptor 6, sequence (P50406 whole entry): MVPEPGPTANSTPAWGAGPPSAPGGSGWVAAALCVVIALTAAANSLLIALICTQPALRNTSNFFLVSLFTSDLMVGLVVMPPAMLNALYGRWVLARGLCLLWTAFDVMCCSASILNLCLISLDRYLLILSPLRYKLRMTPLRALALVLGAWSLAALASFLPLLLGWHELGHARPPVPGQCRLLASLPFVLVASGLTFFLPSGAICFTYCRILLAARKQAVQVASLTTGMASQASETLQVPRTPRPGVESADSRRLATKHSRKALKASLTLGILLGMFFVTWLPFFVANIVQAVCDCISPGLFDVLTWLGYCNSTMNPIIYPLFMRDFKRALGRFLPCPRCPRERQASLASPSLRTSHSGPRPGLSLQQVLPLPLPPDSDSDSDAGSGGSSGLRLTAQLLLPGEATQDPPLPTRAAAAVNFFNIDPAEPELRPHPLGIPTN

[18] = molecular target: Beta-1 adrenergic receptor (Homo sapiens) (UniProt P08588); details: Compound concentration 10.0 uM
Beta-1 adrenergic receptor (Homo sapiens), sequence (P08588 whole entry, looked up): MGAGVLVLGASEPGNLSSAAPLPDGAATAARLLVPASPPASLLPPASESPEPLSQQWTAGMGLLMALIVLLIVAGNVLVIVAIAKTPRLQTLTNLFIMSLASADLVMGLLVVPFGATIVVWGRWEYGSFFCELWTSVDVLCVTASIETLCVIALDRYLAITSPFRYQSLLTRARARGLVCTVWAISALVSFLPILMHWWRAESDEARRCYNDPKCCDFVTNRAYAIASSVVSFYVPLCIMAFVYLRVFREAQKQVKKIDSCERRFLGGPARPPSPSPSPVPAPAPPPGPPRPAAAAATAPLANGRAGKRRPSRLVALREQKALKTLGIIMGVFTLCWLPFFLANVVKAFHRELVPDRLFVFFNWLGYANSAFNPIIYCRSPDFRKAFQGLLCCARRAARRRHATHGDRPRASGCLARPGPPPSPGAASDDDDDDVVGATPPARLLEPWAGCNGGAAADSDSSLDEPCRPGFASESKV

[19] = molecular target: Alpha-1A adrenergic receptor (Homo sapiens) (UniProt P35348); details: Compound concentration 10.0 uM
Alpha-1A adrenergic receptor (Homo sapiens), sequence (P35348 whole entry): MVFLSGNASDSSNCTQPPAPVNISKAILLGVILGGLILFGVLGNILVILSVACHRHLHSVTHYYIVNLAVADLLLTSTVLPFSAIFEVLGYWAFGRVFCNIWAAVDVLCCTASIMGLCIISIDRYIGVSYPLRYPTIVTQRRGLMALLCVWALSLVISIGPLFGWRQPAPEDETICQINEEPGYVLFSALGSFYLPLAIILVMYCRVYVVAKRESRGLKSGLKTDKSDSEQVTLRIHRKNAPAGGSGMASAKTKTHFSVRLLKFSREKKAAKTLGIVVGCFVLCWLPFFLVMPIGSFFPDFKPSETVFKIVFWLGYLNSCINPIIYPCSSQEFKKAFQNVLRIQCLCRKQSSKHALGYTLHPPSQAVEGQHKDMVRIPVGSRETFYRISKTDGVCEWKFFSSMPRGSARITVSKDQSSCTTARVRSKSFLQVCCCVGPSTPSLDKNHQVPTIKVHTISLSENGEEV

[20] = molecular target: T3, Muscarinic acetylcholine receptor M5 (Homo sapiens) (UniProt P08912); details: Compound concentration 10.0 uM
T3 sequence (whole entry): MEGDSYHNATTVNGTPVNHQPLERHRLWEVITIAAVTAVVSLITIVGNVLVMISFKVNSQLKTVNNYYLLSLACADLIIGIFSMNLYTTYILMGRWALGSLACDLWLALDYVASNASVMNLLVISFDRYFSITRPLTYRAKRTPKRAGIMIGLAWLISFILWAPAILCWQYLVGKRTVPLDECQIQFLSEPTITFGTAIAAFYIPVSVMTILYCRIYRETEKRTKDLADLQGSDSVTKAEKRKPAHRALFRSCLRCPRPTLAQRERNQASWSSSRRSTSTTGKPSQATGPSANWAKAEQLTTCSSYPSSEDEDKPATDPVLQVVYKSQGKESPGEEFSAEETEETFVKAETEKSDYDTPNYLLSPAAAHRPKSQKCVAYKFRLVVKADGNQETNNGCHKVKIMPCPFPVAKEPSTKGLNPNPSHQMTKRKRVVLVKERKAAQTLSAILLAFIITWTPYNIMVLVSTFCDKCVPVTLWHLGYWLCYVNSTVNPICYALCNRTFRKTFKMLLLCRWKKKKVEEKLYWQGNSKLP

[21] = molecular target: D(4) dopamine receptor (Homo sapiens) (UniProt P21917); details: Compound concentration 10.0 uM
D(4) dopamine receptor (Homo sapiens), sequence (P21917 whole entry): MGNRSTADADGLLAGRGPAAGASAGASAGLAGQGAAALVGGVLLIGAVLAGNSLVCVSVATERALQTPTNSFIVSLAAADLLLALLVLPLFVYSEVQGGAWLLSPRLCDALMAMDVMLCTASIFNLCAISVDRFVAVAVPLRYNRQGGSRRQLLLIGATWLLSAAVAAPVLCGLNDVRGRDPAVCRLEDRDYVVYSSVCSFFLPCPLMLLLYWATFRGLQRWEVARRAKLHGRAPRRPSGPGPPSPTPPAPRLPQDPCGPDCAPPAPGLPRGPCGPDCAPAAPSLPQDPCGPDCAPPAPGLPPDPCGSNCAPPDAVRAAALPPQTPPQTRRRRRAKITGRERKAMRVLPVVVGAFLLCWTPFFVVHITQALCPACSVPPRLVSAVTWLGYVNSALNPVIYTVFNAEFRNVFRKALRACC

inhibition [1] [%] | inhibition [2] [%] | inhibition [3] [%] | inhibition [4] [%] | inhibition [5] [%] | inhibition [6] [%] | inhibition [7] [%] | IC50 [8] | inhibition [9] [%] | inhibition [10] [%] | inhibition [11] [%] | inhibition [12] [%] | inhibition [13] [%] | inhibition [14] [%] | inhibition [15] [%] | inhibition [16] [%] | inhibition [17] [%] | inhibition [18] [%] | inhibition [19] [%] | inhibition [20] [%] | Compound | also measured
-0.58 | 45 | -6.66 | 34.4 | 14.8 | 0.15 | -0.22 | 0.638 µM | 16.3 | 15 | 9.9 | 27.7 | -9.4 | 26 | 2.02 | 24.4 | 25.9 | 18.8 | 13.3 | -6.26 | CCOc1ccc(S(=O)(=O)Nc2ccc(Cl)cc2C#Cc2cnc(C(=O)O)cc2OC)c2ncccc12 [MSC-4381] | inhibition [21]: 4.2%
2.62 | 60.4 | 18.7 | -7.14 | -2.19 | 25.6 | 9.61 | > 4 µM (not active) | 25 | 8.34 | -0.32 | 13 | 16.9 | 44.4 | -2.53 | 7.95 | 65.5 | 16.7 | 13.7 | -3.36 | COc1cc(C(=O)O)ncc1C#Cc1ccccc1NS(=O)(=O)c1cccc2c(N(C)C)ccnc12 [MSC-0516] | inhibition [21]: 4.65%
